Results as given in ChEMBL document CHEMBL1125330, “N-substituted pyrazino[2,3-c][1,2,6]thiadiazine 2,2-dioxides. A new class of diuretics” (J Med Chem, 1992).

Species: Rattus norvegicus
Experiment: Mean sodium excretion in rats (Control/Drug treatment value); value 0.42/0.65
Type: ADME, organism-based
Conditions: in vivo

Q: Which Na does the source give for CCCc1nc2c(nc1C)C(N)=NS(=O)(=O)N2CC here?
A: The Na was 1.5.
